Assay in all cases: inhibition of tumour cell growth, NCI panel, 48 h
Assay [1] concerns SNB-75.
Assay [2] concerns A549.
The subject of assay [3] is A498.
Assay [4] concerns EKVX.
Assay [5] relates to MCF7.
Assay [6] relates to Hs-578T.
For assay [7], the system named is OVCAR-5.
The test system of assay [8] is HCC 2998.
The test system of assay [9] is NCI-H226.
Assay [10] concerns DU-145.
Assay [11] relates to IGROV-1.
The test system of assay [12] is SW-620.
Assay [13] deals with SF-268.
The subject of assay [14] is SK-MEL-5.
In assay [15] the test system is SK-MEL-28.
For assay [16], the system named is MOLT-4.
For assay [17], the system named is SNB-19.
Assay [18] concerns T47D.
Assay [19] deals with RXF 393.
In assay [20] the test system is HOP-92.

Values joined by “and” are separate entries in the source; they are usually repeats but may differ in a detail not shown here. Equal values may be shown once.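 Grown in 96-well plates, cells were treated for 48 hours with each compound at five concentrations. Insufficient inhibition: endpoint recorded as highest concentration tested. GI50 is the concentration that inhibits growth by half.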 Active and inactive are the calls of the source. Cut-off read from the data, not from the text of the source: active = GI50 up to about 1.1 µM and inactive = higher.

As for `CC1Oc2c(c(=O)oc3ccccc23)[C@@]1(C)CC1C[C@H](C)C(=O)O1` (stereo partly specified), the GI50 was 24.7 µM (inactive) in assay [1]; 87.7 µM (inactive) in assay [2]; > 100 µM (inactive) in [3]; > 100 µM (inactive) in [4]; 34.4 µM (inactive) in [5]; 30.6 µM (inactive) in assay [6]. Further, the GI50 is 83.8 µM (inactive) in assay [7]; 23.2 µM (inactive) in [8]; > 100 µM (inactive) in [9]; 23.3 µM (inactive) in assay [10]; 33.8 µM (inactive) in assay [11]; 26.9 µM (inactive) in [12]. The GI50 in assay [13] is 18.3 µM (inactive); in assay [14] it was 38.8 µM (inactive); in [15], 18.7 µM (inactive); in assay [16] it was 10.9 µM (inactive); in assay [17], 62.4 µM (inactive); in assay [18], 37.4 µM (inactive).
With `CC(C)(C)[Si](C)(C)OCCc1ccccc1C1CC2(S(=O)(=O)c3ccccc3)ON1CC2S(=O)(=O)c1ccccc1` (stereo unspecified), the GI50 is > 100 µM (inactive) in assay [1]; > 100 µM (inactive) in assay [2]; > 100 µM (inactive) in assay [3]; > 100 µM (inactive) in [4]; 60.5 µM (inactive) in [5]; > 100 µM (inactive) in assay [6]. For the same molecule, the GI50 in [7], in [8], in assay [9], in assay [10], in [11] and in [12] was > 100 µM (inactive) throughout. In addition, the GI50 in [13], in assay [19], in [14], in assay [15], in [16] and in [17] was > 100 µM (inactive) throughout. Also, the GI50 in [18] was < 0.01 µM (active).
Take `[O-][N+](CCO)(CCO)c1ncnc2[nH]cnc12`: the GI50 is > 100 µM (inactive) in [1]; > 100 µM (inactive) in assay [2]; > 100 µM (inactive) in assay [3]; > 100 µM (inactive) in assay [4]; 76.6 µM (inactive) in assay [5]; > 100 µM (inactive) in assay [6]. For the same molecule, the GI50 in assay [7], in [8], in assay [9], in assay [10], in assay [11] and in [12] was > 100 µM (inactive) throughout. The GI50 in assay [13], in assay [19], in assay [14], in [15], in assay [16] and in assay [17] was > 100 µM (inactive) in each case. The GI50 in assay [18] is > 100 µM (inactive).
Regarding `COC(=O)C1=C(C)NC(C)=C(C(=O)OC)C1c1ccc(N=O)cc1`, the GI50 in assay [1] is 13.4 µM (inactive); in assay [2] it was 24.5 µM (inactive); in assay [4] it was 17 µM (inactive); in assay [20] it was 2.54 µM (inactive); in assay [5], 17.9 µM (inactive); in assay [6], 7.31 µM (inactive). Also, the GI50 in [7] was 17.5 µM (inactive); in assay [8] it was 16.9 µM (inactive); in [9] it was 16 µM (inactive); in [10] it was 12.9 µM (inactive); in [11] it was 16.1 µM (inactive); in assay [12] it was 3.61 µM (inactive). For the same molecule, the GI50 was 22.1 µM (inactive) in [13]; 8.22 µM (inactive) in [19]; 16.6 µM (inactive) in [14]; 17.1 µM (inactive) in [15]; 3.33 µM (inactive) in assay [16]; 38.7 µM (inactive) in [17]. In assay [18], the GI50 is 6.62 µM (inactive).
As to `Cc1c(C)c(C)c(Cn2[nH]c(=O)n(C)c2=O)c(C)c1C`, the GI50 in assay [1], in assay [2], in [3], in assay [4], in [20] and in assay [5] was > 100 µM (inactive) in each case. The GI50 in assay [6], in [8], in assay [9], in assay [10], in [11] and in [12] was > 100 µM (inactive) throughout. In addition, the GI50 in [13], in assay [14], in assay [15], in [16], in [17] and in [18] was > 100 µM (inactive) in each case.
As for `COC(=O)CCNC(=O)OCc1ccccc1`, the GI50 in assay [1], in assay [2], in assay [3], in assay [4], in assay [5] and in assay [6] was > 100 µM (inactive) in each case. In addition, the GI50 in assay [7], in [8], in assay [9], in [10], in [11] and in assay [12] was > 100 µM (inactive) in each case. The GI50 in assay [13], in assay [14], in [15], in assay [16], in assay [17] and in [18] was > 100 µM (inactive) throughout.
Consider `[N-]=[N+]=CC(=O)OCC1NC(=O)C(COC(=O)C=[N+]=[N-])NC1=O` (stereo unspecified), for which the GI50 in assay [1], in assay [2], in assay [3], in assay [4], in assay [20] and in assay [5] was > 100 µM (inactive) each time. In addition, the GI50 in [6], in assay [7], in [8], in assay [9], in assay [10] and in assay [11] was > 100 µM (inactive) throughout. In addition, the GI50 in assay [12] is > 100 µM (inactive); in assay [13], > 100 µM (inactive); in assay [15], > 100 µM (inactive); in assay [16] it was > 100 µM (inactive); in [17] it was > 100 µM (inactive) and 72.1 µM (inactive); in assay [18] it was > 100 µM (inactive).
For the molecule `COc1nc(-c2c[nH]c3ccccc23)cnc1N`, the GI50 in assay [2] was 31.2 µM (inactive); in assay [3], 15.1 µM (inactive); in assay [4] it was 6.35 µM (inactive); in assay [20] it was 0.0306 µM (active); in assay [5] it was 2.85 µM (inactive); in assay [6] it was 17.7 µM (inactive). For the same molecule, the GI50 is 14.4 µM (inactive) in assay [7]; 67.9 µM (inactive) in assay [8]; 23.4 µM (inactive) in [10]; 19.6 µM (inactive) in [11]; 32.6 µM (inactive) in [12]; 23.6 µM (inactive) in [13]. The GI50 in [14] is 37.9 µM (inactive); in [15], 25.5 µM (inactive); in [16] it was 2.56 µM (inactive); in assay [17], 66.4 µM (inactive); in assay [18] it was 1.56 µM (inactive).
